Results from article PMC11270734 (ACS Omega, 2024).

Legend:
[1] = system: chloroquine-sensitive P. falciparum (3D7 strain); type: cell-based; details: Plasmodium falciparum, 3D7, 48 h, read-out: MEAN IC50 ± SE
Cytotoxicity, MTT assay = type: cell-based; details: human, HEK-293 cells

| SMILES | IC50 [1] | CC50 at 72 h (Cytotoxicity, MTT assay) |
| --- | --- | --- |
| O=C(c1ccccc1)N1CCC2(CC1)OOC1(CCCCC1)OO2 [3b] | 17.9 ± 1.96 nM | > 100 µg/mL |
| O=C(c1ccccc1)N1CCC2(CC1)OOC1(CCCCCC1)OO2 [3c] | 21.9 ± 1.79 nM | > 100 µg/mL |
| O=C(c1ccccc1)N1CCC2(CC1)OOC1(OO2)C2CC3CC(C2)CC1C3 [3d] | 7.28 ± 0.57 nM | > 100 µg/mL |
| CC1(C)OOC2(CCN(C(=O)c3ccccc3)CC2)OO1 [3e] | 29.9 ± 1.28 nM | > 100 µg/mL |
| CCC1(C)OOC2(CCN(C(=O)c3ccccc3)CC2)OO1 [3f] | 42.5 ± 3.04 nM | > 100 µg/mL |
| CCCC1(C)OOC2(CCN(C(=O)c3ccccc3)CC2)OO1 [3g] | 43.4 ± 2.38 nM | > 100 µg/mL |
| CC(C)C1(C)OOC2(CCN(C(=O)c3ccccc3)CC2)OO1 [3h] | 41.2 ± 2.33 nM | > 100 µg/mL |
| CCCCC1(C)OOC2(CCN(C(=O)c3ccccc3)CC2)OO1 [3j] | 17.5 ± 1.24 nM | > 100 µg/mL |
| CC(C)CC1(C)OOC2(CCN(C(=O)c3ccccc3)CC2)OO1 [3k] | 18.9 ± 2.12 nM | > 100 µg/mL |
| CCCCCC1(C)OOC2(CCN(C(=O)c3ccccc3)CC2)OO1 [3l] | 16.7 ± 1.93 nM | > 100 µg/mL |
| CCC1(CC)OOC2(CCN(C(=O)c3ccccc3)CC2)OO1 [3m] | 17.5 ± 1.59 nM | > 100 µg/mL |
| CCCC1(CCC)OOC2(CCN(C(=O)c3ccccc3)CC2)OO1 [3o] | 17.3 ± 1.78 nM | > 100 µg/mL |
| CC1(c2ccccc2)OOC2(CCN(C(=O)c3ccccc3)CC2)OO1 [3p] | 16.3 ± 0.93 nM | > 100 µg/mL |
| CC1(c2ccc(Cl)cc2)OOC2(CCN(C(=O)c3ccccc3)CC2)OO1 [3q] | 11.8 ± 0.8 nM | > 100 µg/mL |
| CC1(c2ccc(C#N)cc2)OOC2(CCN(C(=O)c3ccccc3)CC2)OO1 [3r] | 15.7 ± 0.78 nM | > 100 µg/mL |
| O=Cc1ccc(C(=O)N2CCC3(CC2)OOC2(OO3)C3CC4CC(C3)CC2C4)cc1 [3u] | 6.35 ± 0.55 nM | > 100 µg/mL |
| C[C@@H]1CC[C@H]2[C@@H](C)C(=O)O[C@@H]3O[C@@]4(C)CC[C@@H]1[C@]32OO4 [artemisinin, reference compound] |  | > 100 µg/mL |
